# Legend:
# pancreatic cancer = settings: 10 μmol/L alone; cells without drugs 17%; cited from earlier work
# [1] = test system: transplantable tumor of HCT116 cancer strain; assay: Transplantable tumor of HCT116 in nude mice; assay type: in vivo, BALB/c nude mice; settings: HCT116 tumors
# Procedure: (§1) The present experiment was performed as a randomized and single-blinded trial. 5×10^6 HCT116 or 1×10^7 Huh7 cells were subcutaneously injected into dorsa of 4-week-aged BALB/c nude mice. When the size of tumors reached 50 mm^3, the mice were divided into groups, including an untreated control group (Control), a group treated with LCL161 alone (i.p. 20 mg/kg/d), a group infected with M1 alone (transplantable tumor of HCT116 cancer strain was injected with M1 virus via tail vein (2×10^6 PFU/time), and transplantable tumor of Huh7 cancer strain was injected with M1 virus via tail vein (5×10^5 PFU/time)) and a group treated with LCL161/M1 (LCL161 and M1 virus were administered in the same way at the same dose), and four injections was performed continuously (for HCT116, injection was conducted on day 5, day 6, day 7, and day 8; for Huh7, injection was conducted on day 10, day 11, day 12, and day 13). The weight, length and width of the tumor were measured every two days, and the volume of the tumor was calculated according to the formula: (length×width^2)/2. After measuring the volume of the tumor, one way ANOVA statistics was carried out, wherein *** indicates p<0.001, ** indicates p<0.01, and * indicates p<0.05.
# [2] = test system: human colorectal cancer cell line HCT116; assay: MTT survival rate of HCT116 cells (LCL161/Birinapant, M1 virus); assay type: cell-based; settings: MTT 72 hours, 5 μM LCL161, MOI of M1 not stated (FIG. 2(A))
# Procedure: a) Inoculation of cells and administration treatment: cells in the exponential growth phase were selected and added into a DMEM complete culture medium (containing 10% fetal bovine serum and 1% penicillin/streptomycin (Life Technologies)) to prepare a cell suspension. The cells were inoculated into a 96-well culture plate at a density of 4×10^3/well. After 12 hours, the cells were completely adherent to the wells. The experiment was divided into a control group and a single drug group (using 5 μM LCL161 or Birinapant alone), a group infected with M1 and a group treated with LCL161/M1 or Birinapant/M1. In M1-containing assays, virus was provided at varying MOI. The concentration of LCL161 or Birinapant was 5 μM • b) Reaction of MTT with succinate dehydrogenase in the cells: 72 hours after culture, 20 μl MTT (5 mg/ml) was added into each well, and was incubated for a further 4 hours. After incubation, granular blue and purple formazan crystals formed in the living cells were observed by microscopic examination. • c) Dissolution of formazan particles: those cultures having cells with formazan crystals were further processed as follows. […] The optical density (OD value) of each well was detected in an enzyme linked detector at a wavelength of 570 nm. […] The calculated survival rate of the cells=OD value of the drug treatment group/OD value of the control group×100%. […]
# Caspase 3/7, 8, and 9 [3] = assay: Caspase activity (chemiluminescence/MTT) in Huh7 cells; assay type: cell-based, human; settings: M1 0.1 MOI, LCL161 5 μM, 72 hours, vs control
# Procedure: (§2) The cells in the exponential growth phase were selected and added into a DMEM complete culture medium (containing 10% fetal bovine serum and 1% penicillin/streptomycin (Life Technologies)) to prepare a cell suspension. The cells were inoculated into a 96-well culture plate at a density of 4×10^3/well. After 12 hours, the cells were completely adherent to the walls of the culture plate. In this experiment, cultures were divided into a control group, a single drug group (using LCL161 alone), a group infected with M1, and a group treated with combined LCL161/M1. The doses used were as follows: cells were infected with M1 at 1 MOI ([…]) or 0.1 MOI (Huh7 cells), and LCL161 was added at a concentration of 5 μM. Each of the above mentioned treatment groups was divided in four for detecting MTT and the activities of Caspase 3/7, 8 and 9. 72 hours after treatment, the reagent for detecting Caspase3/7, 8 and 9 was added into each well on the basis of the volume, and the resulting wells were placed into the incubator for a further half hour. The liquid was absorbed into the opaque 96 well plate for measuring the chemical luminous intensity by a microplate reader. Meanwhile, MTT was detected to calculate the survival rate of the cells. The activity of Caspase was standardized by the ratio of chemiluminescent value to MTT value.
# [4] = test system: transplantable tumor of Huh7 cancer strain; assay: Transplantable tumor of Huh7 in nude mice; assay type: in vivo, BALB/c nude mice; settings: Huh7 tumors; LCL161 i.p. 20 mg/kg/d; M1 tail vein 5×10^5 PFU/time; four injections day 10-13
# Procedure: as §1
# Caspase 3/7, 8, and 9 [5] = assay: Caspase activity (chemiluminescence/MTT) in HCT116 cells; assay type: cell-based, human; settings: M1 1 MOI, LCL161 5 μM, 72 hours, vs control
# Procedure: as §2
SMILES,apoptosis rate (pancreatic cancer),"reduction in tumor volume as compared with the control group ([1]; LCL161 i.p. 20 mg/kg/d, M1 tail vein 2×10^6 PFU/time, four injections day 5-8)","tumor volume (in words) ([1]; same dosing, vs control group)",survival rate [2],"activities of Caspase 3/7, 8, and 9 (Caspase 3/7, 8, and 9 [3])",reduction in tumor volume as compared with the control group [4],"activities of Caspase 3/7, 8, and 9 (Caspase 3/7, 8, and 9 [5])"
Nc1ccn([C@@H]2O[C@H](CO)[C@@H](O)C2(F)F)c(=O)n1 [Gemcitabine],58%,–,–,–,–,–,–
CN[C@@H](C)C(=O)N[C@H](C(=O)N1CCC[C@H]1c1nc(C(=O)c2ccc(F)cc2)cs1)C1CCCCC1 [LCL161],–,29.15%,only a slight reduction in tumor volume,92.6%,only slightly up-regulated,18.1%,only slightly up-regulated
